Assay results from US6465007B1, “Transgene expression in polarized cells” (Genzyme Corporation, priority 1998, dated 2002).

Columns and labels:
polarized NHBE cells [1] = assay: Binding and internalization of cationic lipid:pDNA complexes (TOTO-1 label, trypan blue quenching); details: Table 1; grades Very Effective / Mildly Effective
Description: Cells were incubated with TOTO-1 or Rh-PE labeled complexes at 37° C. for the times noted in the figure legends. Following incubation, cells were washed 7 times with cold PBS and then fixed in 2% paraformadehyde for 20 min at 4° C. The membrane of the insert was removed and mounted using immuno-mount (Shandon, Pittsburgh, Pa.) containing 2 μg/ml DAPI (Molecular Probes). Bound and internalized complexes were observed under a fluorescence microscope (Olympus, AX-70). To observe only internalized complexes, cells were washed 2 times with cold PBS and then the fluorescence of surface bound complexes was quenched by a 10 min incubation with trypan blue (1 mg/ml; Diagnostic Systems, Inc., Gibbstown, N.J.) on ice. Cells were then washed an additional 5 times with cold PBS, fixed and mounted.
Polarized NHBE cells were cultured using a modified procedure based on the methods described by Yamaya et al., American Journal of Physiology, 265:L170-L177 (1993), Jiang et al., Science, 262:424-427 (1993) and Gray et al., American Journal of Respiratory Cell & Molecular Biology, 14:104-112 (1996). Briefly, first passage NHBE cells were plated at a density of 2.5×10^5 cells/cm^2 onto inserts (Millicell-PCF, 0.4 μm pore size, Millipore) coated with human placental collagen (Sigma). The culture medium was the same as that described above for growing NHBE cells as islands. Cultures were maintained under air-liquid interface conditions starting at day 3 following the initial seeding. Cells were considered ready for use when the trans-epithelial resistance was •1000 Ωcm^2.

mouse nose = details: cited from earlier work
CF patients = details: cited from earlier work
[2] = Stabilization of cationic lipid:pDNA complexes by PEG-containing lipid; format: physicochemical; details: 1.14 mol % relative to total lipid
Description: For example, at 1.14 mol % DMPE-PEG5000 (relative to the amount of total lipid), cationic lipid:pDNA complexes could be stabilized at pDNA concentrations exceeding 20 mM. Without PEG-containing lipids, a salt excipient, which is not preferred since an ionic excipient also depresses transfection activity, is required to maintain the lipid:pDNA ratio of the complex during certain methods such aerosolization. For more information regarding use of PEG derivatives the following references are specifically incorporated by reference: Simon J. Eastman et al., Human Gene Therapy, 8, pp. 765-773 (1997); Simon J. Eastman et al. Human Gene Therapy, p. 8, pp. 313-322 (1997).

polarized NHBE cells [3] = assay: In vitro transfection with GL-67:pCF1-SEAP, secreted alkaline phosphatase in apical supernatant; format: cell-based, human; details: 0.5 μg/ml, 18 h before and after transfection, with or without Ca2+-free medium; FIG. 2A
Description: Prior to transfection, polarized NHBE cells on inserts were incubated in either Opti-MEM, Opti-MEM containing 0.1% EGTA, or in Ca^2+-free media (Gibco) in both sides of the insert for 30 min at 37° C. The cells were then washed 3 times with Opti-MEM, and incubated with unlabeled GL-67:pCF1-SEAP (40:53 μM) for 4 h at 37° C., after which they were washed 3 times with Opti-MEM. One ml of culture medium then was added to the outside of the insert (basal side) and 100 μl added to the inside of the insert (apical side). The supernatant from the apical side was collected on day 2 after transfection, heated at 65° C. for 1 h to denature endogenous alkaline phosphatases (Berger et al., Gene, 1988), and assayed in triplicate for secreted alkaline phosphatase (SEAP) activity using an alkaline phosphatase reagent (Sigma) and human placental alkaline phosphatase (Calbiochem, La Jolla, Calif.) as a standard.
(§1) To inhibit NHBE cell proliferation, aphidicolin (0.5 μg/ml; Sigma) was added to culture medium on the basal side of the polarized NHBE cells for 18 h at 37° C. The cells were then transfected as described above except that the concentrations of cationic lipid and pDNA were 80 and 107 μM, respectively. After transfection, aphidicolin was present in the culture medium until the cells were harvested. […] Retinoic acid enhanced the inhibitory effect of aphidicolin on cell proliferation (Chou, R. H. et al., Cell & Tissue Kinetics, 18:387-97, 1985).

NHBE cells = assay: Cell proliferation assay, [methyl-3H]-thymidine incorporation into DNA; format: cell-based, human
Description: The proliferation of NHBE cells was assessed by measuring the amount of [methyl-^3H] thymidine incorporation into DNA (Fasbender et al., Gene Therapy, 4:1173-1180, 1997). [Methyl-^3H] thymidine (5 μCi/ml; Amersham, Arlington Heights, Ill.) was added to culture medium on the basal side of polarized NHBE cells which had been pre-treated with either Opti-MEM or Ca^2+-free medium. After 4 h, both groups of cells were washed 3 times with PBS and then lysed in a buffer containing 0.2% SDS, 100 mM Tris (pH=7.0), 5 mM EDTA, 200 mM NaCl, and 0.5 mg/ml proteinase K. The lysate was incubated at 65° C. for 30 min, microcentrifuged for 5 min and the supernatant placed into a fresh tube. An equal volume of isopropanol was added to precipitate the DNA. The precipitated DNA pellet was washed twice with 70% ethanol, dried, and resuspended in a 10 mM Tris-HCl, 0.5 mM EDTA buffer, pH 8.0. The DNA concentration was determined using A260/280 measurements. Tritium counts were measured using a Beckman LS6500 scintillation counter.
as §1

mouse trachea = assay: Intranasal instillation of Ad2βgal-4, X-gal staining of airways; format: in vivo
Description: Female BALB/c mice 9-12 weeks of age were purchased from Taconic (Germantown, N.Y.). In some groups, mice were instilled intranasally with 25 μl of a solution containing EGTA (pH 7.5), followed by 25 μl of 5% sucrose in PBS containing Adβgal-4 (2×10^8 IU). In other groups, mice were co-instilled with 25 μl of a solution prepared by mixing equal volumes of a 2× (4×10^8 IU/25 μl) Ad2βgal-4 solution in 10% sucrose with 2×EGTA prior to instillation.
Cytochemical localization of Ogal expression in the trachea was observed using 5-bromo-4-chloro-3-indolyl-β-D-galactopyranoside (X-gal; Sigma). In brief, cannulated mouse lungs were fixed for 10 min by infusion of a fixing solution (2% paraformaldehyde and 0.2% glutaraldehyde in PBS). The lungs were then rinsed twice with 50 mM glycine in PBS, filled with X-gal solution, and stained overnight. Staining was stopped by transfering the samples into the fixing solution.
Trachea with staining levels were defined on a scale of 0 to 3, 0 indicating no cells staining for βgal, and a value of 3 indicating a large number of cells positive for the transgene. To evaluate the effect of EGTA concentration on AdV-mediated gene transfer in the trachea, mice were pre-treated with various concentrations of EGTA 0.5 h before AdV instillation. In some animals, AdV and EGTA were co-instilled. To exclude the possibility that any observed enhancement of expression was due to a hyperosmotic effect of the EGTA solution, a 20% mannitol solution (osmolarity similar to 0.4M EGTA) was included as a control in both the pre-treatment and co-instillation models.

[4] = 0.5 μg/ml in culture medium containing 50 nM retinoic acid

CCCCCCCCCC(=O)O[C@H](CC(=O)[O-])C[N+](C)(C)C [Decanoylcamitine, decanoylcarnitine]
Effects of Tight Junction Disrupting Compounds on Cationic Amphiphile: DNA Complex Binding (polarized NHBE cells [1]): Mildly Effective

C[C@H](CCC(=O)NCC(=O)[O-])[C@H]1CC[C@H]2[C@@H]3[C@H](O)C[C@@H]4C[C@H](O)CC[C@]4(C)[C@H]3C[C@H](O)[C@]12C.[Na+] [Sodium glycocholate, sodium glycocholate]
Effects of Tight Junction Disrupting Compounds on Cationic Amphiphile: DNA Complex Binding (polarized NHBE cells [1]): Mildly Effective

polidocanol
AdV-mediated gene expression in respiratory epithelial cells (mouse nose): enhanced AdV-mediated gene expression

O=C(O)CN(CCN(CC(=O)O)CC(=O)O)CC(=O)O [EDTA, Ethylenediaminetetraacetic acid]
Effects of Tight Junction Disrupting Compounds on Cationic Amphiphile: DNA Complex Binding (polarized NHBE cells [1]): Very Effective
toxic side-effects (CF patients; 0.2 g in 10 ml injected, or 0.6 g in 300 ml nebulized over 24 h, via tracheostomy once per day for 3 days): No toxic side-effects were noted
adverse effects (CF patients; children with CF, aerosol of 0.05M 3 times/day for 2 weeks): no adverse effects
tolerability (CF patients; children with CF, aerosol of 0.1 M 3 times/day for 2 weeks): Three out of ten could not tolerate
respiratory function (CF patients; same phase I trial): remained unchanged
serum calcium and magnesium levels (CF patients; same phase I trial): remained normal

polyethylene glycol 5000-dimyristoylphosphatidylethanolamine [DMPE-PEG5000]
pDNA concentration at which cationic lipid:pDNA complexes could be stabilized [2]: exceeding 20 mM

C[C@@]1(CO)[C@H](O)CC[C@@]2(C)[C@H]1CC[C@H]1C[C@@H]3C[C@@]12CC[C@]3(O)CO [aphidicolin]
effect on gene expression from polarized NHBE cells (polarized NHBE cells [3]): no effect on gene expression
inhibition of proliferation of NHBE cells (NHBE cells; [4]): sufficient to inhibit proliferation
toxicity (NHBE cells; [4]): minimal toxicity
[methyl-3H]-thymidine incorporation (NHBE cells; NHBE cells grown on plastic, presence of aphidicolin): 6,600±600 cpm/μg DNA

OC[C@@H](O)[C@@H](O)[C@H](O)[C@H](O)CO [mannitol]
X-gal staining in the trachea (mouse trachea; 20% pre-treatment, compared with AdV alone, FIG. 4): not different
enhancement in gene transfer (mouse trachea; pre-treating with hyperosmotic solution, FIGS. 4 & 5A): No comparible enhancements

CCCCCCCCCC(=O)[O-].[Na+] [Sodium Caprate, sodium caprate]
Effects of Tight Junction Disrupting Compounds on Cationic Amphiphile: DNA Complex Binding (polarized NHBE cells [1]): Mildly Effective
